Assay results: patent US10821110B2, “Composite preparation, containing novel 3-(4--(benzyloxy)phenyl)hex-4-inoic acid derivative and another active ingredient, for preventing or treating metabolic diseases” (HYUNDAI PHARM CO., LTD., priority 2014, dated 2020)
Read-outs that look alike come from different tables or passages of the source.

Assays:
[1] = molecular target: T1, human GPR40 (Homo sapiens, UniProt O14842); assay: Activation of GPR40 protein: intracellular calcium change (Fluo-4, Flexstation 3) in transfected HEK-293 cells; assay type: cell-based; settings: HEK-293 cells transfected with human GPR40
T1 construct: host or cells: HEK-293
Procedure: The activation of GPR40 protein by a novel 3-(4-(benzyloxy)phenyl)hex-4-ynoic acid derivative of the present invention was evaluated through the change in intracellular calcium concentration due to the activity of GPR40 protein. First, HEK-293 cells were transfected with human GPR40 DNA (Origene, RC218370) by using Fugene HD (Promega, E2311). […] After 24 hours, the cell culture medium was removed, and replaced with Dulbecco's Modified Eagle Medium (DMEM, 50 μl) supplemented with 1% fetal bovine serum (FBS). For the measurement of calcium concentration, 50 μL of Fluo-4 reagent (Invitrogen, F10471) was added to each well and cultured in a 37° C. incubator for 2 hours. […] Two hours after the initiation of the culture, the prepared samples were automatically injected into the cells using Flexstation 3 (Molecular Devices), and then, the change in intracellular calcium concentration was measured using SoftMax®Pro software for 120 seconds. Here, for a non-treated group, dimethylsulfoxide (DMSO) was injected into the cells to measure the change in calcium concentration. The GPR40 protein activity was calculated from the measured calcium concentration result values using equation 1 below, and the GPR40 activity (EC50 value) by the samples was obtained. […] GPR 40 activity=(intracellular calcium concentration increased by the sample)/(intracellular calcium concentration of the non-treated group)×100 [Equation 1]

[2] = test system: Male Sprague Dawley rats; assay: Oral glucose tolerance test (OGTT) 1; assay type: in vivo; settings: Rattus norvegicus, 2 h; SD rats; 10 mg/kg oral; glucose 4 g/kg 30 minutes after; read-out: % AUC (reduction (%) of blood glucose AUC)
Procedure: Male Sprague Dawley rats aged 8-10 weeks old were acclimated for at least 7 days, and then only healthy animals were used for the oral glucose tolerance test (OGTT test). After fasting for 16-18 hours, five rats per group were randomly grouped and orally administered with the compounds prepared in Examples 2, 3, 4, 6, 9, 12, 14, 16, 25, 29, 36, 37, 41, 43, and 44 at a dose of 10 mg/kg each. Here, as for a non-treated group (vehicle), a solution (PEG 400/Tween 80/0.25% CMC, 5%/5%/90%, v/v/v) containing 5% polyethyleneglycol/5% tween 80/0.25% carboxymethylcelluluse (CMC) was orally administered at the same dose. Glucose (4 g/kg) was orally administered at a dose of 5 ml/kg 30 minutes after each sample was administered. Then, the blood glucose was measured by using Accu-chek active strip (Roche diagnostic Co.).

[3] = intracellular calcium, read-out: EC50
[4] = values in text, read-out: concentration activating the GPR40 protein by 50% (EC50)

T1 sequence (O14842 whole entry): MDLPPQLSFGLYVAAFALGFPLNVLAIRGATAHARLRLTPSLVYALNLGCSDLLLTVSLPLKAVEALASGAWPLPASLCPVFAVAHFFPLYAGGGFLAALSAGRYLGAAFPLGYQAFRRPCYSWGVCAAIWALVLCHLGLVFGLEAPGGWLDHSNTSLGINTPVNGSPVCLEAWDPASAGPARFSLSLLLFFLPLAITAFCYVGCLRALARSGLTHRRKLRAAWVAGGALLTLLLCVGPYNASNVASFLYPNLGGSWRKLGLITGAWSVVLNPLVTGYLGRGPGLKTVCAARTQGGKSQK

| Compound | EC50 [1, 3] | EC50 [1, 4] | inhibition in vivo at 10 mg/kg [2] |
| --- | --- | --- | --- |
| CC#CC(CC(=O)O)c1ccc(OCc2ccc(C3=CCC4(CC3)OCCO4)cc2)cc1 (centres unmarked) [Example 3] |  |  | 12.5% |
| CC#CC(CC(=O)O)c1ccc(OCc2cccc(C3=CCC(=O)CC3)c2)cc1 (centres unmarked) [Example 4, 3-(4-(3-(4-oxocyclohex-1-enyl)benzyloxy)phenyl)hex-4-ynoic acid] | > 300 nM |  | 16.2% |
| CC#CC(CC(=O)O)c1ccc(OCc2cccc(C3=CCC(O)CC3)c2)cc1 [Example 6, L-lysine 3-(4-(3-(4-hydroxycyclohex-1-enyl)benzyloxy)phenyl)hex-4-ynoate] |  |  | 15.2% |
| CC#CC(CC(=O)O)c1ccc(OCc2ccc(CN3CCc4ccccc4C3)c(C3=CCCCC3)c2)cc1 (centres unmarked) [Example 13, 3-(4-(3-cyclohexenyl-4-((3,4-dihydroisoquinolin-2(1H)-yl)methyl)benzyloxy)phenyl)hex-4-ynoic acid] | > 300 nM |  |  |
| CC#CC(CC(=O)O)c1ccc(OCc2ccc(CN3CCN(c4ccccc4)CC3)cc2)cc1 (centres unmarked) [Example 15, 3-(4-(4-((4-phenylpiperazin-1-yl)methyl)benzyloxy)phenyl)hex-4-ynoic acid] | > 300 nM |  |  |
| CC#CC(CC(=O)O)c1ccc(OCc2ccc(CN3CCC(c4ccccc4)CC3)cc2)cc1 (centres unmarked) [Example 17, 3-(4-(4-((4-phenylpiperidin-1-yl)methyl)benzyloxy)phenyl)hex-4-ynoic acid] | > 300 nM |  |  |
| CC#CC(CC(=O)O)c1ccc(OCc2ccc(CN3CCN(c4ccc(F)cc4)CC3)cc2)cc1 (centres unmarked) [Example 18, 3-(4-(4-((4-(4-fluorophenyl)piperazin-1-yl)methyl)benzyloxy)phenyl)hex-4-ynoic acid] | > 300 nM |  |  |
| CC#CC(CC(=O)O)c1ccc(OCc2ccc(CN3CCN(c4ccc(C(F)(F)F)cc4)CC3)cc2)cc1 (centres unmarked) [Example 19, 3-(4-(4-((4-(4-(trifluoromethyl)phenyl)piperazin-1-yl)methyl)benzyloxy)phenyl)hex-4-ynoic acid] | > 300 nM |  |  |
| CC#C[C@@H](CC(=O)O)c1ccc(OCc2ccc(CN3CCN(c4ccc(C(F)(F)F)cc4)CC3)cc2)cc1 [Example 22, (S)-3-(4-(4-((4-(4-(trifluoromethyl)phenyl)piperazin-1-yl)methyl)benzyloxy)phenyl)hex-4-ynoic acid] | > 300 nM |  |  |
| CC#C[C@@H](CC(=O)O)c1ccc(OCc2ccc(CN3CCC(c4ccccc4)CC3)cc2)cc1 [Example 26, (S)-3-(4-(4-((4-phenylpiperidin-1-yl)methyl)benzyloxy)phenyl)hex-4-ynoic acid] | > 300 nM |  |  |
| CC#C[C@@H](CC(=O)O)c1ccc(OCc2ccc(CN3CCN(c4ccc(OCOC)cc4)CC3)cc2)cc1 [Example 29, (S)-3-(4-(4-((4-(4-(methoxymethoxy)phenyl)piperazin-1-yl)methyl)benzyloxy)phenyl)hex-4-ynoic acid] |  |  | 27.1% |
| CC#C[C@@H](CC(=O)O)c1ccc(OCc2ccc(CN3CCN(c4ccc(O)cc4)CC3)cc2)cc1 [Example 35, (S)-3-(4-(4-((4-(4-hydroxyphenyl)piperazin-1-yl)methyl)benzyloxy)phenyl)hex-4-ynoic acid] | > 300 nM |  |  |
| CC#C[C@@H](CC(=O)O)c1ccc(OCc2ccc(CN3Cc4ccccc4C3)cc2)cc1 [Example 37, sodium (S)-3-(4-(4-(isoindolin-2-ylmethyl)benzyloxy)phenyl)hex-4-ynoate] |  |  | 28.5% |
| CC#C[C@@H](CC(=O)O)c1ccc(OCc2ccc(CN3CCN(c4ccc(C#N)cn4)CC3)cc2)cc1 [Example 45, (S)-3-(4-(4-((4-(5-cyanopyridin-2-yl)piperazin-1-yl)methyl)benzyloxy)phenyl)hex-4-ynoic acid] | > 300 nM |  |  |
| potassium (S)-3-(4-(4-((4-(4-(trifluoromethyl)phenyl)piperazin-1-yl)methyl)benzyloxy)phenyl)hex-4-ynoate [Example 24] | 200 to 300 nM |  |  |

Continued, in another order:

| EC50 [1, 3] | EC50 [1, 4] | Compound | inhibition in vivo at 10 mg/kg [2] |
| --- | --- | --- | --- |
| > 300 nM |  | CC#CC(CC(=O)O)c1ccc(OCc2cccc(C3=CCC4(CC3)OCCO4)c2)cc1 (centres unmarked) [Example 1, 3-(4-(3-(1,4-dioxaspiro[4.5]dec-7-en-8-yl)benzyloxy)phenyl)hex-4-ynoic acid] |  |
| > 300 nM |  | CC#CC(CC(=O)O)c1ccc(OCc2cccc(C3=CCC4(CC3)OCCO4)c2)cc1 [Example 2, L-lysine 3-(4-(3-(1,4-dioxaspiro[4.5]dec-7-en-8-yl)benzyloxy)phenyl)hex-4-ynoate] | 17.2% |
| < 200 nM | ≤ 200 nM | CC#C[C@@H](CC(=O)O)c1ccc(OCc2cccc(C3=CCC4(CC3)OCCO4)c2)cc1 [Example 7, (3S)-3-(4-(3-(1,4-dioxaspiro[4.5]dec-7-en-8-yl)benzyloxy)phenyl)hex-4-ynoic Acid] |  |
| > 300 nM |  | CC#C[C@H](CC(=O)O)c1ccc(OCc2cccc(C3=CCC4(CC3)OCCO4)c2)cc1 [Example 8, (3R)-3-(4-(3-(1,4-dioxaspiro[4.5]dec-7-en-8-yl)benzyloxy)phenyl)hex-4-ynoic acid] |  |
| > 300 nM |  | CC#C[C@H](CC(=O)O)c1ccc(OCc2cccc(C3=CCC4(CC3)OCCO4)c2)cc1 [Example 10, L-lysine (3R)-3-(4-(3-(1,4-dioxaspiro[4.5]dec-7-en-8-yl)benzyloxy)phenyl)hex-4-ynoate] |  |
| < 200 nM | ≤ 200 nM | CC#CC(CC(=O)O)c1ccc(OCc2ccc(CN3CCc4ccccc4C3)cc2)cc1 (centres unmarked) [Example 12, 3-(4-(4-((3,4-dihydroisoquinolin-2(1H)-yl)methyl)benzyloxy)phenyl)hex-4-ynoic acid] | 31% |
| > 300 nM |  | CC#CC(CC(=O)O)c1ccc(OCc2ccc(CN3CCN(c4ccc(OCCCS(C)(=O)=O)cc4)CC3)cc2)cc1 (centres unmarked) [Example 20, 3-(4-(4-((4-(4-(3-(methylsulfonyl)propoxy)phenyl)piperazin-1-yl)methyl)benzyloxy)phenyl)hex-4-ynoic acid] |  |
| < 200 nM | ≤ 200 nM | CC#C[C@@H](CC(=O)O)c1ccc(OCc2ccc(CN3Cc4ccccc4C3)cc2)cc1 [Example 27, (S)-3-(4-(4-(isoindolin-2-ylmethyl)benzyloxy)phenyl)hex-4-ynoic acid] |  |
| < 200 nM | ≤ 200 nM | CC#C[C@@H](CC(=O)O)c1ccc(OCc2ccc(CN3CC=C(c4ccccc4)CC3)cc2)cc1 [Example 28, (S)-3-(4-(4-((4-phenyl-5,6-dihydropyridin-1(2H)-yl)methyl)benzyloxy)phenyl)hex-4-ynoic acid] |  |
| > 300 nM |  | CC#C[C@@H](CC(=O)O)c1ccc(OCc2ccc(CN3CC=C(c4ccc(S(C)(=O)=O)cc4)CC3)cc2)cc1 [Example 32, (S)-3-(4-(4-((4-(4-(methylsulfonyl)phenyl)-5,6-dihydropyridin-1(2H)-yl)methyl)benzyloxy)phenyl)hex-4-ynoic acid] |  |
| > 300 nM |  | CC#C[C@@H](CC(=O)O)c1ccc(OCc2ccc(CN3CC=C(c4ccc(OCCCS(C)(=O)=O)cc4)CC3)cc2)cc1 [Example 33, (S)-3-(4-(4-((4-(4-(3-(methylsulfonyl)propoxy)phenyl)-5,6-dihydropyridin-1(2H)-yl)methyl)benzyloxy)phenyl)hex-4-ynoic acid] |  |
| > 300 nM |  | CC#C[C@@H](CC(=O)O)c1ccc(OCc2ccc(C(C)N3CCc4ccccc4C3)cc2)cc1 (stereo partly drawn) [Example 34, (3S)-3-(4-(4-(1-(3,4-dihydroisoquinolin-2(1H)-yl)ethyl)benzyloxy)phenyl)hex-4-ynoic acid] |  |
| > 300 nM |  | CC#C[C@@H](CC(=O)O)c1ccc(OCc2ccc(CN3CCC(c4ccccc4)C3)cc2)cc1 (stereo partly drawn) [Example 46, (3S)-3-(4-(4-((3-phenylpyrrolidin-1-yl)methyl)benzyloxy)phenyl)hex-4-ynoic acid] |  |
| > 300 nM |  | CC#C[C@@H](CC(=O)O)c1ccc(OCc2ccc(CCN3CCc4cc(OC)ccc4C3)cc2)cc1 [Example 48, (S)-3-(4-(4-(2-(6-methoxy-3,4-dihydroisoquinolin-2(1H)-yl)ethyl)benzyloxy)phenyl)hex-4-ynoic acid] |  |
| > 300 nM |  | CC#C[C@@H](CC(=O)O)c1ccc(OCc2ccc(CCN3Cc4ccccc4C3)cc2)cc1 [Example 49, (S)-3-(4-(4-(2-(isoindolin-2-yl)ethyl)benzyloxy)phenyl)hex-4-ynoic acid] |  |
| > 300 nM |  | CC#C[C@@H](CC(=O)O)c1ccc(OCc2ccc(CCN3CCc4ccccc4C3)cc2)cc1 [Example 50, (S)-3-(4-(4-(2-(3,4-dihydroisoquinolin-2(1H)-yl)ethyl)benzyloxy)phenyl)hex-4-ynoic acid] |  |
